The values below come from PMC4591263, “The GSTome Reflects the Chemical Environment of White-Rot Fungi” (PLoS ONE, 2015).

Each structure is given as a SMILES string.

Common to all, as to test: GSH conjugation of CDNB, Michaelis-Menten fit
Holding throughout (assay type): biochemical
Holding throughout (details): saturating GSH

For one assay, the target named is T1, TvGSTO-1S (Trametes versicolor, UniProt R7S9J3).
T1 construct: gene TRAVEDRAFT_75639; synthetic gene in pET-26b (NdeI/NotI), C-terminal His-tag, E. coli Rosetta2 (DE3) pLysS
T1 sequence (R7S9J3 1-256): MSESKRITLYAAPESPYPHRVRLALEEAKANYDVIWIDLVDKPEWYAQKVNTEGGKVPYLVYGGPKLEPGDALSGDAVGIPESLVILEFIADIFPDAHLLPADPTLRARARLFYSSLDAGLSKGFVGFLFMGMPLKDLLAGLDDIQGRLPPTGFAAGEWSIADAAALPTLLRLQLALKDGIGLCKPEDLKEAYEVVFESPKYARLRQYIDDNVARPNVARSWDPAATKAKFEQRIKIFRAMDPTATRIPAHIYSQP

Another assay addresses T2, TvGSTO-3S (Trametes versicolor, UniProt A0A384E145).
T2 construct: synthetic gene in pET-26b (NdeI/NotI), C-terminal His-tag, E. coli Rosetta2 (DE3) pLysS
T2 sequence (A0A384E145 1-240): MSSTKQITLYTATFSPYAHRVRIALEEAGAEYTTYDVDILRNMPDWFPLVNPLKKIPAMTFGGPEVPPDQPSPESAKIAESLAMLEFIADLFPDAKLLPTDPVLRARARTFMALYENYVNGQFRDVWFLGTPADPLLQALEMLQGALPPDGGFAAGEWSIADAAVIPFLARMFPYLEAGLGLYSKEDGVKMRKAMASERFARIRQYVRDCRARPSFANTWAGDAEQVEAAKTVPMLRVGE

The target of another assay is T3, TvGSTO-6S (Trametes versicolor, UniProt A0A384E158).
T3 construct: synthetic gene in pET-26b (NdeI/NotI), C-terminal His-tag, E. coli Rosetta2 (DE3) pLysS
T3 sequence (A0A384E158 1-246): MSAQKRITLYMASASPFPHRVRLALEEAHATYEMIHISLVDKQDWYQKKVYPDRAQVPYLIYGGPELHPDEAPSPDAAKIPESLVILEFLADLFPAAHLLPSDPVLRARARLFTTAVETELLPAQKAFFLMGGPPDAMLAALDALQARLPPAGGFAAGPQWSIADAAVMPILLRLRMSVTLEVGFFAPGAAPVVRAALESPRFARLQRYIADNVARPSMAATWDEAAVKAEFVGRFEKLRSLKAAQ

Consider `O=[N+]([O-])c1ccc(Cl)c([N+](=O)[O-])c1` [CDNB, 1-chloro-2,4-dinitrobenzene], for which the Km entry on TvGSTO-1S, on TvGSTO-3S and on TvGSTO-6S was “All proteins exhibit an activity against CDNB” in each case.
